Values joined by “and” are separate entries in the source; they are usually repeats but may differ in a detail not shown here. Equal values may be shown once.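 Results reflect a 48-hour exposure of cells in 96-well plates to compound at five concentrations. GI50 marks 50% less growth. TGI is the concentration that stops growth completely.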
Tests used:
Assay in all cases: NCI tumour cell line growth inhibition, 48 h
HS 578T breast = system: HS 578T breast
MDA-MB-435 = system: MDA-MB-435
DMS 114 small cell lung = system: DMS 114 small cell lung
HOP-18 NSCLC = system: HOP-18 NSCLC
SNB-78 CNS = system: SNB-78 CNS
KM20L2 colon = system: KM20L2 colon
BT-549 breast = system: BT-549 breast
MDA-N = system: MDA-N

SMILES: CC(C)COc1nc2c(c(=O)n(C)c(=O)n2C)n1C
- GI50 (HS 578T breast): 64.1 µM
- TGI (HS 578T breast): > 100 µM
- GI50 (MDA-MB-435): > 100 µM
- TGI (MDA-MB-435): > 100 µM

SMILES: O=C1C2C3CC(C4C5C=CC(C5)C34)C2C2C3CC(C12)C1C2C=CC(C2)C31 (stereo not given)
- TGI (DMS 114 small cell lung): > 100 µM
- TGI (HOP-18 NSCLC): > 100 µM
- TGI (SNB-78 CNS): > 100 µM
- TGI (KM20L2 colon): > 100 µM

SMILES: Cc1cn(Cc2ccc(C34CC5CC(CC(C5)C3)C4)c(O)c2)c(=O)[nH]c1=O
- GI50 (BT-549 breast): 8.7 µM
- TGI (BT-549 breast): 20.8 µM
- GI50 (HS 578T breast): 8.42 µM
- TGI (HS 578T breast): 33.8 µM
- GI50 (MDA-MB-435): 2.62 µM
- TGI (MDA-MB-435): 9.02 µM

SMILES: CSc1nc2c(c(=O)n1C)CN(C1CCCCC1)C(=O)C(c1ccccc1)N2 (stereo not given)
- GI50 (BT-549 breast): 13.2 µM
- TGI (BT-549 breast): 49.4 µM
- GI50 (HS 578T breast): 15.9 µM
- TGI (HS 578T breast): 80.7 µM
- GI50 (MDA-MB-435): 19.1 µM
- TGI (MDA-MB-435): > 100 µM

SMILES: O=C1C=CC(=O)c2c(O)c3c(c(O)c21)C[C@H](O)[C@H](O)[C@@H]3O
- TGI (BT-549 breast): 2.81 µM
- TGI (HS 578T breast): 7.87 µM
- TGI (MDA-N): 2.95 µM
- TGI (MDA-MB-435): 3.13 µM

SMILES: Clc1cccc(C2N3CCCCC3[C@@H]3c4[nH]c5ccccc5c4CCN23)c1 (stereo not given in full)
- TGI (DMS 114 small cell lung): 55.6 µM
- TGI (HOP-18 NSCLC): > 100 µM
- TGI (KM20L2 colon): > 100 µM

SMILES: CCOP(=O)(OCC)C(C(=O)OC)C(=O)C(=O)Nc1cccc(O)c1 (stereo not given)
- TGI (BT-549 breast): > 100 µM
- TGI (HS 578T breast): > 100 µM
- TGI (MDA-N): > 100 µM
- TGI (MDA-MB-435): > 100 µM

SMILES: Cc1cc(C)c(-c2c(N)cc(Br)cc2Br)c(N)c1
- GI50 (BT-549 breast): 5.76 µM
- TGI (BT-549 breast): 18.2 µM
- GI50 (MDA-MB-435): 2.29 µM
- TGI (MDA-MB-435): 7.37 µM

SMILES: CC(=O)[CH-]C(=O)c1ccccc1.CC(=O)[CH-]C(=O)c1ccccc1.O=S(=O)([O-])c1cc([O-])c2c([O-])cc(S(=O)(=O)[O-])cc2c1.[Na+].[Zr+4]
- GI50 (KM20L2 colon): > 100 µM
- TGI (KM20L2 colon): > 100 µM

SMILES: CO[C@H]1CC(O[C@@H]2/C(C)=C/C[C@@H]3C[C@@H](C[C@]4(CC[C@H](C)[C@@H](C5CCCCC5)O4)O3)OC(=O)[C@@H]3C=C(C)/C(=N/O)[C@H]4OC/C(=C\C=C\[C@@H]2C)[C@]43O)O[C@@H](C)C1O (stereo not given in full)
- GI50 (BT-549 breast): 1.17 µM
- TGI (BT-549 breast): 3.41 µM
- GI50 (HS 578T breast): 1.22 µM
- TGI (HS 578T breast): 5.52 µM
- GI50 (MDA-MB-435): 1.05 µM
- TGI (MDA-MB-435): 2.41 µM

SMILES: O=C(O)C1[O][Sb][O]C(C(=O)O)C1O (stereo not given)
- GI50 (BT-549 breast): > 100 µM
- TGI (BT-549 breast): > 100 µM
- GI50 (HS 578T breast): > 100 µM
- TGI (HS 578T breast): > 100 µM
- GI50 (MDA-MB-435): > 100 µM
- TGI (MDA-MB-435): > 100 µM

SMILES: Cc1cccc(C)c1N1C(=O)C(=O)C(c2nc3ccccc3s2)/C(=N\N)C1=O (stereo not given)
- TGI (DMS 114 small cell lung): > 100 µM
- TGI (HOP-18 NSCLC): > 100 µM
- TGI (SNB-78 CNS): > 100 µM
- TGI (KM20L2 colon): > 100 µM

SMILES: COc1ccc(OC)c(/C=N/N=C(\N)NO)c1
- TGI (DMS 114 small cell lung): > 100 µM
- TGI (SNB-78 CNS): > 100 µM

SMILES: CN1CCN(Cc2ccc(NC(=O)c3cncc(C#Cc4cnc(N)c5cccnc45)c3)cc2C(F)(F)F)CC1
- GI50 (BT-549 breast): 1.48 µM
- TGI (BT-549 breast): > 50 µM
- GI50 (HS 578T breast): 0.196 µM
- TGI (HS 578T breast): 1.61 µM
- GI50 (MDA-MB-435): 0.15 µM

SMILES: NS(=O)(=O)c1cc(C(=O)O)c(O)c2ccccc12
- TGI (BT-549 breast): > 100 µM
- TGI (HS 578T breast): > 100 µM
- TGI (MDA-N): > 100 µM
- TGI (MDA-MB-435): > 100 µM

SMILES: O=C(/C=C/c1cccc([N+](=O)[O-])c1)c1ccc([N+](=O)[O-])cc1
- TGI (SNB-78 CNS): > 100 µM
- TGI (KM20L2 colon): > 100 µM

SMILES: COC(=O)[C@@H]1Cc2c([nH]c3ccccc23)[C@H](c2ccccc2)N1
- TGI (DMS 114 small cell lung): 84 µM
- TGI (HOP-18 NSCLC): > 100 µM
- TGI (KM20L2 colon): > 100 µM

SMILES: O=c1c(Cl)c(Cl)cnn1CCCl
- TGI (BT-549 breast): 13.9 µM
- TGI (DMS 114 small cell lung): 18.9 µM
- TGI (HS 578T breast): 12.8 µM
- TGI (MDA-MB-435): 10.6 µM
- TGI (SNB-78 CNS): 30.7 µM
- TGI (KM20L2 colon): 27.2 µM

SMILES: Cn1cc(-c2cnn3c(N)c(Br)c(C4CCCNC4)nc23)cn1 (stereo not given)
- GI50 (BT-549 breast): 0.922 µM
- TGI (BT-549 breast): 32.5 µM
- GI50 (HS 578T breast): 4 µM
- TGI (HS 578T breast): > 72.3 µM
- GI50 (MDA-MB-435): 0.754 µM
- TGI (MDA-MB-435): > 57.8 µM

SMILES: COC(=O)c1cc2c3ccccc3n3c2c(n1)-c1[nH]c2ccccc2c(=O)c1C3
- GI50 (BT-549 breast): 22.6 µM
- TGI (BT-549 breast): 63.2 µM
- GI50 (HS 578T breast): 15.4 µM
- TGI (HS 578T breast): > 100 µM
- GI50 (MDA-MB-435): > 100 µM
- TGI (MDA-MB-435): > 100 µM

SMILES: COC1(OC)C2(Cl)C(Cl)=C(Cl)C1(Cl)C1C2C2CC1(C(=O)O)c1ccccc12 (stereo not given)
- TGI (DMS 114 small cell lung): 39.9 µM
- TGI (HOP-18 NSCLC): 93.9 µM
- TGI (KM20L2 colon): 62.8 µM

SMILES: COc1ccc([C@@]23Oc4cc(OC)cc(OC)c4[C@]2(O)[C@H](O)[C@H](C(N)=O)[C@H]3c2ccccc2)cc1
- TGI (BT-549 breast): 0.0847 µM and < 0.0226 µM
- GI50 (HS 578T breast): < 0.0135 µM
- TGI (HS 578T breast): 0.0914 µM and < 0.01 µM
- TGI (MDA-MB-435): 0.0793 µM and 0.631 µM

SMILES: CC[C@@H](C)/C=C(C)/C=C/C(=O)c1c(O)c(-c2ccc(O)cc2)cn(O)c1=O
- GI50 (BT-549 breast): 0.487 µM
- TGI (BT-549 breast): 16.1 µM
- GI50 (HS 578T breast): 2.83 µM
- TGI (HS 578T breast): 34.5 µM
- GI50 (MDA-MB-435): 0.468 µM
- TGI (MDA-MB-435): 17.5 µM

SMILES: CCNC(=O)OCc1c(COC(=O)NCC)c(-c2ccc(Cl)c(Cl)c2)n2c1CCC2
- TGI (DMS 114 small cell lung): 25.4 µM
- TGI (KM20L2 colon): 68.3 µM

SMILES: CCCCCC/C=C\CCCCCCCCCC1=C(CN2CCN(C)CC2)C(=O)C=C(OC)C1=O
- TGI (BT-549 breast): 15.5 µM
- TGI (HS 578T breast): 24.5 µM
- TGI (MDA-N): 21.1 µM
- TGI (MDA-MB-435): 21.1 µM

SMILES: COc1ccc(S(=O)(=O)N(CC(=O)O)c2ccccc2)cc1
- TGI (HOP-18 NSCLC): > 100 µM
- TGI (KM20L2 colon): > 100 µM

SMILES: CCCCCCCCCC[C@H](O)[C@H](O)CC[C@@H](O)[C@H]1CC[C@@H]([C@H]2CC[C@H](CCCCCCC[C@@H](O)CC3=C[C@H](C)OC3=O)O2)O1
- GI50 (MDA-N): 17.5 µM
- TGI (MDA-N): 53 µM
- GI50 (MDA-MB-435): 28.7 µM

SMILES: CC(=O)[CH-]C(=O)c1ccccc1.CC(=O)[CH-]C(=O)c1ccccc1.CC(=O)[CH-]C(=O)c1ccccc1.[Nd+3].[OH3+]
- GI50 (KM20L2 colon): 38 µM
- TGI (KM20L2 colon): > 100 µM

SMILES: CCCCCCCC/C=C/CCCCCCCC1=NC(C)(C)CN1CCO
- GI50 (BT-549 breast): 5.76 µM
- TGI (BT-549 breast): 19.6 µM
- GI50 (HS 578T breast): 1.76 µM
- TGI (HS 578T breast): 3.98 µM
- GI50 (MDA-MB-435): 1.73 µM
- TGI (MDA-MB-435): 3.41 µM

SMILES: C#CCN(c1ccc(C(=O)N[C@@H](CCC(=O)N[C@H](CCC(=O)O)C(=O)O)C(=O)O)cc1)C1CCc2cc3nc(CO)[nH]c(=O)c3cc21 (stereo not given in full)
- GI50 (BT-549 breast): 58 µM
- TGI (BT-549 breast): > 100 µM
- GI50 (HS 578T breast): > 100 µM
- TGI (HS 578T breast): > 100 µM
- GI50 (MDA-MB-435): > 74.5 µM
- TGI (MDA-MB-435): > 100 µM

SMILES: Cc1cc(Nc2nc(N[C@@H](C)c3ncc(F)cn3)ncc2Cl)n[nH]1
- GI50 (BT-549 breast): 9.81 µM
- TGI (BT-549 breast): > 100 µM
- GI50 (HS 578T breast): 15.9 µM
- TGI (HS 578T breast): > 71.8 µM
- GI50 (MDA-MB-435): 28.1 µM
- TGI (MDA-MB-435): > 100 µM

SMILES: C=CCC(N[C@@H](CO)c1ccccc1)c1cn(C(=O)OCC)c2ccccc12 (stereo not given in full)
- GI50 (BT-549 breast): 32.9 µM
- TGI (BT-549 breast): > 100 µM
- GI50 (HS 578T breast): 21 µM
- TGI (HS 578T breast): 40.3 µM
- GI50 (MDA-MB-435): 22.7 µM
- TGI (MDA-MB-435): 55.9 µM

SMILES: O=C1O/C(=C/c2ccccc2)C(c2ccccc2)=C1O
- TGI (MDA-N): > 100 µM
- TGI (MDA-MB-435): 89.1 µM

SMILES: Nc1nc(/C=C\c2ccccc2)nc(N2CCN(c3ccccc3)CC2)n1
- GI50 (BT-549 breast): 45 µM
- TGI (BT-549 breast): > 100 µM
- GI50 (HS 578T breast): 61.8 µM
- TGI (HS 578T breast): > 100 µM
- GI50 (MDA-MB-435): 28.4 µM
- TGI (MDA-MB-435): 70.2 µM
